Laboratory results: patent US20190346463A1, “COMPOSITIONS AND METHOD FOR DETERMINING INSULIN RESISTANCE USING NON-ESTERIFIED FATTY ACID ANALYSIS” (The Penn State Research Foundation, priority 2016, published 2019)

Test: compartmental model of NEFA trafficking in response to a glucose challenge (frequently sampled intravenous glucose tolerance test, FAs measured by GC-MS)
Format: in vivo
Conditions: greater in IR (p=0.05); mean [95% CI] 55% [14, 76]
Excerpt: In general the present disclosure involves analysis of NEFA trafficking by determining kinetic parameters that include, but are not necessarily limited to, the fractional rate of NEFA appearance (Ra), the rate of NEFA disappearance (kNEFA), threshold for glucose-induced suppression (tG), and IC50 for glucose inhibition of NEFA production (gIC50). Those skilled in the art will recognize that each of these parameters is known and can be determined using a variety of established approaches. In this regard the presence or absence, qualitative and quantitative amounts of, and kinetic parameters for one or more NEFAs in a biological sample can be sample determined using, for example, chromatographic methods, such as column chromatography, including High Performance Liquid Chromatography (HPLC) and gas chromatography, and spectroscopy methods including mass spectrometry, nuclear magnetic resonance spectroscopy, infrared spectroscopy, positron emission tomography and other approaches, such as those described in “A novel minimal model to describe NEFA kinetics following an intravenous glucose challenge” Ray C. Boston, Peter J. Moate, American Journal of Physiology—Regulatory, Integrative and Comparative Physiology Apr 2008, 294 (4) R1140-R1147. […]
This Example reflects an ancillary study. […] Six FAs were measured by GC-MS (myristic, palmitic, palmitoleic, stearic, oleic, and linoleic acids). […]

SMILES: CCCCCCCCCCCCCCCCCC(=O)O [stearate, stearic acid]
- kNEFA in IR versus healthy subjects: 55%
